In patent US8592383B2, “Cycloalkyl-fused tetrahydroquinolines as CRTH2 receptor modulators” (Merck Sharp & Dohme Corp., priority 2011, dated 2013):

Molecular target: T1, hCRTH2 (Homo sapiens, UniProt Q9Y5Y4)
T1 sequence (Q9Y5Y4 1-395): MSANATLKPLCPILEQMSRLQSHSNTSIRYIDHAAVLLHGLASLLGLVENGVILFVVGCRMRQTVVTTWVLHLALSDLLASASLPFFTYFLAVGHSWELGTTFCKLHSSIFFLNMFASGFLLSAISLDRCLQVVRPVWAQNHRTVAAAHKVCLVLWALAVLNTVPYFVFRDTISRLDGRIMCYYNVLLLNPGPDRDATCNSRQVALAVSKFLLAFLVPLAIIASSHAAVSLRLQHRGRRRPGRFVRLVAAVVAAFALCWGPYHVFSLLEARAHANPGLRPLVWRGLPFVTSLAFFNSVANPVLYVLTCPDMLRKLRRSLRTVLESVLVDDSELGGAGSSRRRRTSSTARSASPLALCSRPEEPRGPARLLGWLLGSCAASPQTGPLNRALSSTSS
Assay: biochemical
Conditions: Ki (nM)

| Structure (SMILES) | Ki |
| --- | --- |
| O=C(O)CCC(=O)N(C1CC1)[C@@H]1c2ccccc2N(C(=O)OCc2ccc(F)cc2)[C@@H]2CCC[C@@H]21 (single isomer, unassigned) [compound 22, 4-[(4-Fluorophenyl)methyl]cis,cis-[(3-carboxy-1-oxopropyl)cyclopropylamino]-1,2,3,3a,9,9a-hexahydro-4H-cyclopenta[b]quinoline-4-carboxylate] | 5.1 to 20 nM |

Same assay, conditions: Ki, Radioligand Binding Assay A; 3.0 nM [3H]PGD2, HEK-hCRTH2 membranes

| Ki | Structure (SMILES) |
| --- | --- |
| 36 nM | O=C(O)CCC(=O)N(C1CC1)C1c2ccccc2N(C(=O)c2ccco2)C2CCCC21 (racemic) [17BL, 4-(cyclopropyl(cis,cis-4-(furan-2-carbonyl)-2,3,3a,4,9,9a-hexahydro-1H-cyclopenta[b]quinolin-9-yl)amino)-4-oxobutanoic acid] |
| 605 nM | CN(C(=O)CCC(=O)O)C1c2ccccc2N(C(=O)OCc2ccccc2)C2CCCC12 (racemic) [17U, 4-(phenylmethyl) cis,cis-9-[(3-carboxy-1-oxopropyl)methylamino]-1,2,3,3a,9,9a-hexahydro-4H-cyclopenta[b]quinoline-4-carboxylate] |
| 28.5 nM | CCOc1cnc(-c2ccc(C(=O)N3c4ccccc4C(N(C(=O)CCC(=O)O)C4CC4)C4CCCC43)cc2)nc1 (racemic) [18P, 4-[cyclopropyl[cis,cis-4-[4-(5-ethoxy-2-pyrimidinyl)benzoyl]-2,3,3a,4,9,9a-hexahydro-1H-cyclopenta[b]quinolin-9-yl]amino]-4-oxobutanoic acid] |
| 9.8 nM | O=C(O)CCC(=O)N(C1CC1)C1c2ccccc2N(C(=O)c2ccc(-c3cncs3)cc2)C2CCCC21 (racemic) [18o, 4-[cyclopropyl[cis,cis-2,3,3a,4,9,9a-hexahydro-4-[4-(5-thiazolyl)benzoyl]-1H-cyclopenta[b]quinolin-9-yl]amino]-4-oxobutanoic acid] |
| 4.7 nM | O=C(O)CCC(=O)N(C1CC1)C1c2ccc(Cl)cc2N(C(=O)OCc2ccccc2)C2CCCC21 (single isomer, unassigned) [9A, 4-(phenylmethyl) cis,cis-[(3-carboxy-1-oxopropyl)cyclopropylamino]-6-chloro-1,2,3,3a,9,9a-hexahydro-4H-cyclopenta[b]quinoline-4-carboxylate] |
| 10.9 nM | O=C(O)CCC(=O)N(C1CCC1)C1c2ccc(Cl)cc2N(C(=O)c2ccc(F)c(F)c2)C2CCCC21 (single isomer, unassigned) [17Co, 4-[[cis,cis-6-chloro-4-(3,4-difluorobenzoyl)-2,3,3a,4,9,9a-hexahydro-1H-cyclopenta[b]quinolin-9-yl]cyclobutylamino]-4-oxobutanoic acid] |
| 34.2 nM | O=C(O)CCC(=O)N(C1CCC1)[C@@H]1c2ccccc2N(C(=O)c2cccc(OC(F)(F)F)c2)[C@@H]2CCC[C@@H]21 (single isomer, unassigned) [17DA, 4-[cyclobutyl[cis,cis-2,3,3a,4,9,9a-hexahydro-4-[3-(trifluoromethoxy)benzoyl]-1H-cyclopenta[b]quinolin-9-yl]amino]-4-oxobutanoic acid] |
| 1080 nM | CCN(C(=O)CCC(=O)O)C1c2ccccc2N(C(=O)OCc2cc(F)cc(F)c2)C2CCCC12 (single isomer, unassigned) [22A, 4-[(3,5-difluorophenyl)methyl] cis, cis-[(3-carboxy-1-oxopropyl)ethylamino]-1,2,3,3a,9,9a-hexahydro-4H-cyclopenta[b]quinoline-4-carboxylate] |
| 1.5 nM | O=C(O)CCC(=O)N(C1CC1)C1c2ccc(Cl)cc2N(C(=O)c2ccc(OC(F)(F)F)cc2)C2CCC21 (single isomer, unassigned) [27K, 4-[[cis, cis-5-chloro-1,2,2a,3,8,8a-hexahydro-3-[4-(trifluoromethoxy)benzoyl]cyclobuta[b]quinolin-8-yl]cyclopropylamino]-4-oxobutanoic acid] |
| 638 nM | O=C(O)COC(=O)N(C1CC1)C1c2ccccc2N(c2nnc(Cc3ccc(OC(F)(F)F)cc3)o2)C2CCCC21 (single isomer, unassigned) [38G, [[[cyclopropyl[cis,cis-2,3,3a,4,9,9a-hexahydro-4-[5-[[4-(trifluoromethoxy)phenyl]methyl]-1,3,4-oxadiazol-2-yl]-1H-cyclopenta[b]quinoline-9-yl]amino]carbonyl]oxy]acetic acid] |

Further lines, the compound ahead of its results:

| Structure (SMILES) | Ki |
| --- | --- |
| O=C(O)c1ccccc1C(=O)N(C1CC1)[C@@H]1c2ccccc2N(C(=O)c2ccc(OC(F)(F)F)cc2)[C@@H]2CCC[C@@H]21 (racemic) [17Ci, 2-[[cyclopropyl[cis,cis-2,3,3a,4,9,9a-hexahydro-4-[4-(trifluoromethoxy)benzoyl]-1H-cyclopenta[b]quinolin-9-yl]amino]carbonyl]benzoic acid] | 838 nM |
| O=C(O)CCCN(C1CC1)[C@@H]1c2ccccc2N(C(=O)c2ccc(OC(F)(F)F)cc2)[C@@H]2CCC[C@@H]21 (racemic) [compound 44, 4-[Cyclopropyl[cis,cis-2,3,3a,4,9,9a-hexahydro-4-[4-(trifluoromethoxy)benzoyl]-1H-cyclopenta[b]quinolin-9-yl]amino]butanoic acid] | 2.54 nM |
| Cc1ccc2c(c1)C(N(C(=O)CCC(=O)O)C1CC1)C1CCCC1N2C(=O)c1ccc(OC(F)(F)F)cc1 (single isomer, unassigned) [compound 51, 4-[Cyclopropyl[cis,cis-2,3,3a,4,9,9a-hexahydro-7-methyl-4-[4-(trifluoromethoxy)benzoyl]-1H-cyclopenta[b]quinolin-9-yl]amino]-4-oxobutanoic acid] | 6.9 nM |
| O=C(O)CCCN(C1CC1)C1c2ccccc2N(C(=O)OCc2ccccc2)C2CCCC21 (single isomer, unassigned) [compound 60, 4-(phenylmethyl) cis, cis-[(3-carboxypropyl)cyclopropylamino]-1,2,3,3a,9,9a-hexahydro-4H-cyclopenta[b]quinoline-4-carboxylate] | 21.2 nM |
| CCN(C(=O)CCC(=O)O)C1c2ccccc2N(C(=O)C2CC2c2ccccc2)C2CCCC12 (single isomer, unassigned) [compound 69, 4-[ethyl[cis, cis-2,3,3a,4,9,9a-hexahydro-4-[(2-phenyl-1-cyclopropyl)carbonyl]-1H-cyclopenta[b]quinolin-9-yl]amino]-4-oxobutanoic acid] | 4.97 nM |
| CCN(C(=O)CCC(=O)O)C1c2ccccc2N(C(=O)OCc2ccc(F)c(F)c2)C2CCCC12 (single isomer, unassigned) [compound 72, 4-[(3,4-difluorophenyl)methyl] cis, cis-[(3-carboxy-1-oxopropyl)ethylamino]-1,2,3,3a,9,9a-hexahydro-4H-cyclopenta[b]quinoline-4-carboxylate] | 15.7 nM |
| O=C(O)CCC(=O)N(C1CC1)C1c2cc(F)ccc2N(C(=O)c2ccc(OC(F)(F)F)cc2)C2CCCC21 (single isomer, unassigned) [compound 134, 4-[cyclopropyl[cis, cis-7-fluoro-2,3,3a,4,9,9a-hexahydro-4-[4-(trifluoromethoxy)benzoyl]-1H-cyclopenta[b]quinolin-9-yl]amino]-4-oxobutanoic acid] | 236 nM |

Molecular target: T1, hCRTH2
Assay: not given
Parameters: expressed in transfected cells; host or cells: HEK (human embryonic kidney) cells expressing hCRTH2
Conditions: Radioligand Binding Assay B; Table B, rated A-D
Protocol: The filters were then washed with 4 mL of the same buffer and residual radioligand bound to the filter was determined by liquid scintillation counting following equilibration in 25 μl Ultima Gold F™ (Unifilter) (Packard).

| Structure (SMILES) | Ki |
| --- | --- |
| O=C(c1ccccc1)N1c2ccccc2[C@@H](N(C(=O)OCCO)C2CC2)[C@H]2CCC[C@H]21 (racemic) [compound 29, 2-Hydroxyethyl cyclopropyl[cis,cis-4-(phenylcarbonyl)-2,3,3a,4,9,9a-hexahydro-1H-cyclopenta[b]quinolin-9-yl]carbamate] | 201 to 7500 nM |
| O=C(O)COC(=O)N(C1CC1)[C@@H]1c2ccccc2N(C(=O)c2ccccc2)[C@@H]2CCC[C@@H]21 (racemic) [compound 30, ({Cyclopropyl[cis,cis-4-(phenylcarbonyl)-2,3,3a,4,9,9a-hexahydro-1H-cyclopenta[b]quinolin-9-yl]carbamoyl}oxy)acetic acid] | 5.1 to 20 nM |
| O=C(O)COC(=O)N(C1CC1)[C@@H]1c2ccccc2N(C(=O)c2ccc(OC(F)(F)F)cc2)[C@@H]2CCC[C@@H]21 (racemic) [compound 31, ({Cyclopropyl[cis,cis-4-{[4-(trifluoromethoxy)phenyl]carbonyl}-2,3,3a,4,9,9a-hexahydro-1H-cyclopenta[b]quinolin-9-yl]carbamoyl}oxy)acetic acid] | 5.1 to 20 nM |
| O=C(O)CCC(=O)N(C1CC1)[C@@H]1c2ccccc2N(c2nnc(Cc3ccccc3)o2)[C@@H]2CCC[C@@H]21 (racemic) [compound 36, 4-{[cis-4-(5-Benzyl-1,3,4-oxadiazol-2-yl)-2,3,3a,4,9,9a-hexahydro-1H-cyclopenta[b]quinolin-9-yl](cyclopropyl)amino}-4-oxobutanoic acid] | 20.1 to 200 nM |
| O=C(O)COC(=O)N(C1CC1)C1c2ccccc2N(c2nnc(-c3ccccc3)o2)C2CCCC21 (racemic) [compound 37, ({Cyclopropyl[cis,cis-4-(5-phenyl-1,3,4-oxadiazol-2-yl)-2,3,3a,4,9,9a-hexahydro-1H-cyclopenta[b]quinolin-9-yl]carbamoyl}oxy)acetic acid] | 5.1 to 20 nM |
| CCN(c1nc(C(=O)O)cs1)[C@@H]1c2ccccc2N(C(=O)OCc2ccccc2)[C@@H]2CCC[C@H]12 (racemic) [compound 39, 2-[{cis,cis-4-[(Benzyloxy)carbonyl]-2,3,3a,4,9,9a-hexahydro-1H-cyclopenta[b]quinolin-9-yl}(ethyl)amino]-1,3-thiazole-4-carboxylic acid] | 20.1 to 200 nM |
